The results in this text go back to ChEMBL document CHEMBL5727820, “Substituted carbonucleoside derivatives useful as anticancer agents” (2020).

Structures are written as SMILES. Values joined by “and” are separate entries in the source; they are usually repeats but may differ in a detail not shown here. Identical values can stand only once.

This assay can be described thus: Biochemical Assay: Compounds were solubilized in DMSO and serially diluted, using 3-fold dilutions, into 100% DMSO at a concentration 50-fold greater than the desired assay concentration. Following dilution, 1 ul was added to an empty 96-well microtiter plate. PRMT5/MEP50 protein complex was combined with H4(1-21) peptide ([…]) in PRMT5 assay buffer (50 mM Tris pH 8.5, 50 mM NaCl, 5 mM MgCl2, 1 mM EDTA, 1 mM TCEP) and 44 ul was added to the microtiter plate containing compound. S-Adenosyl-L-methionine (SAM) was prepared by combining 3H labelled SAM with unlabelled SAM in PRMT5 assay buffer such that the final SAM concentration was 10 uM and the specific activity was 0.2 uCi/ul. The reaction was initiated by adding 5 ul of SAM stock to the microtiter plate. The final reaction conditions were 10 nM PRMT5/MEP50 complex, 200 nM peptide and 1 uM SAM. Following a 25 minute incubation at room temperature, the reaction was stopped with the addition of 100 uL of 20% TCA. The 3H-peptide product was captured using a 96-well filter plate (MSIPN4B, Millipore) and washed 5 times with PBS buffer. Scintillation fluid (100 ul) was added to the dried filter plate and counted in a liquid scintillation counter. IC50 values were determined by fitting the data to the standard 4-parameter dose response equation using Pfizer proprietary software.
The IC50 is the concentration that gives 50% inhibition. Take `Cc1cc(N[C@H]2C[C@@H](Oc3ccc(F)cc3C#N)[C@H](O)[C@@H]2O)ncn1`: the IC50 was above 200000 nM.

Turning to `Cc1ncnc2c1ccn2[C@@H]1CC([C@](C)(O)c2ccc(F)cc2)[C@@H](O)[C@H]1O` (some centres not stated), the IC50 turned out to be 17100 nM.

Consider `O[C@@H]1[C@H](O)[C@@H](Oc2cccc3c2CNCC3)C[C@H]1n1cc(F)c2c(Cl)ncnc21`, for which the IC50 came out at 2 nM.

For `O[C@@H]1[C@H](O)[C@@H]([C@@H](O)c2ccc(F)c(F)c2)C[C@H]1Nc1ncnc2[nH]ccc12`, the IC50 turned out to be 449 nM.

As to `Cc1nc(N)c2c(C)cn([C@@H]3C[C@H](Oc4cc(F)c(F)c5c4CNCC5)[C@@H](O)[C@H]3O)c2n1`, the IC50 came to 1 nM.

On to `Cc1cc(N[C@@H]2C[C@H](Oc3ccccc3C#N)[C@@H](O)[C@H]2O)ncn1`, for which the IC50 is above 200000 nM.

Regarding `Cc1ncnc2c1ccn2[C@@H]1C[C@H]([C@H](F)c2ccc(F)cc2)[C@@H](O)[C@H]1O`, the IC50 came out at 217 nM.

Take `Cc1cc(N[C@@H]2C[C@H]([C@H](O)c3ccc(F)c(F)c3)[C@@H](O)[C@H]2O)ncn1`: the IC50 was 3580 nM.

Consider `Cc1ncnc2c1ccn2[C@@H]1C[C@H]([C@@H](O)c2ccc(F)cc2)[C@@H](O)[C@H]1O`, for which the concentration for half-maximal inhibition (IC50) amounted to 289 nM.

Turning to `CN(c1ccncn1)[C@@H]1C[C@H]([C@@H](O)c2ccc(F)c(F)c2)[C@@H](O)[C@H]1O`, the IC50 came out at 466 nM.

For the molecule `Cc1nc(N)nc2c1ccn2[C@@H]1C[C@H]([C@@H](O)c2ccc(F)c(F)c2)[C@@H](O)[C@H]1O`, the half-maximal inhibitory concentration (IC50) was 5 nM.

With `N#Cc1cccc2c(N[C@H]3C[C@H](C(O)c4ccc(F)c(F)c4)[C@@H](O)[C@H]3O)ncnc12` (some centres not stated), the IC50 was above 200000 nM.

Regarding `CO[C@@H]1C[C@H](n2ccc3c(C)ncnc32)[C@H](O)[C@@H]1O`, the half-maximal inhibitory concentration (IC50) was 2120 nM.

With `Cc1ncnc(N(C)[C@@H]2C[C@H]([C@@H](O)c3ccc(F)c(F)c3)[C@@H](O)[C@H]2O)n1`, the IC50 is 297 nM.

Turning to `CN(c1ccncn1)[C@@H]1C[C@@H]([C@H](O)c2ccc(F)c(F)c2)[C@@H](O)[C@H]1O`, the IC50 amounted to 15700 nM.

On to `Nc1ncnc2c1ccn2[C@@H]1C[C@H]([C@@H](O)c2ccc(Cl)c(F)c2)[C@@H](O)[C@H]1O`, for which the IC50 was 572 nM.

Regarding `Cc1ncnc2c1ccn2[C@@H]1C[C@@H]([C@H](CN)c2ccc(F)cc2)[C@@H](O)[C@H]1O`, the IC50 was 906 nM.

As for `N#Cc1cccc2c(N[C@@H]3C[C@H](C(O)c4ccc(F)c(F)c4)[C@@H](O)[C@H]3O)ncnc12` (some centres not stated), the IC50 is above 200000 nM.

Take `Cc1ncnc2c1ccn2[C@@H]1C[C@H](Oc2ccccc2CN)[C@@H](O)[C@H]1O`: the IC50 was 1060 nM.

For the molecule `Cc1ncnc2c1ccn2[C@H]1C[C@@H](Oc2ccccc2CN)[C@H](O)[C@@H]1O`, the IC50 worked out at 25 nM.

As to `Cc1ncnc2c1ccn2[C@@H]1C[C@H](Oc2ccc(F)cc2[C@H](C)N)[C@@H](O)[C@H]1O`, the IC50 was determined as 123 nM.

For the molecule `CN(c1ncnc(N)n1)[C@@H]1C[C@H]([C@@H](O)c2ccc(F)c(F)c2)[C@@H](O)[C@H]1O`, the IC50 came to 266 nM.

On to `Nc1ncnc2c1ccn2[C@@H]1C[C@@H]([C@H](O)c2ccc(Cl)c(F)c2)[C@@H](O)[C@H]1O`, for which the IC50 is 71 nM.

Turning to `CN(c1cc(N)ncn1)[C@@H]1C[C@@H]([C@H](O)c2ccc(F)c(F)c2)[C@@H](O)[C@H]1O`, the IC50 was 17000 nM.

As to `CN(c1ncnc(N)n1)[C@@H]1C[C@@H]([C@H](O)c2ccc(F)c(F)c2)[C@@H](O)[C@H]1O`, the IC50 came out at 15700 nM.

Consider `Nc1ncnc2c1c(F)cn2[C@@H]1C[C@H](Oc2cccc3c2CNCC3)[C@@H](O)[C@H]1O`, for which the IC50 was 8 nM and 28 nM.

Regarding `O[C@@H]1[C@H](O)[C@H]([C@H](O)c2ccc(F)c(F)c2)C[C@H]1Nc1ncnc2[nH]ccc12`, the IC50 amounted to 5770 nM.

As for `Cc1cn([C@@H]2C[C@H](Oc3ccc(F)c4c3CNCC4)[C@@H](O)[C@H]2O)c2ncnc(Cl)c12`, the 50% inhibitory concentration (IC50) turned out to be 1 nM.

As for `Cc1cccc(CC(O)[C@H]2C[C@@H](n3ccc4c(C)ncnc43)[C@H](O)[C@@H]2O)n1` (some centres not stated), the IC50 was above 200000 nM.

For `Cc1ncnc2c1ccn2[C@@H]1C[C@H](Oc2ccc(F)c3c2CNC[C@H]3C)[C@@H](O)[C@H]1O`, the IC50 was 1 nM.

Regarding `Cc1ncnc2c1ccn2[C@@H]1C[C@H](Oc2ccc(F)cc2[C@@H](C)N)[C@@H](O)[C@H]1O`, the IC50 was 2 nM.

For the molecule `Cc1ncnc2c1ccn2[C@@H]1C[C@H](Oc2cc(C(F)F)c(F)c3c2CNCC3)C(O)=C1O`, the IC50 is 1 nM.

`Cc1cc(N[C@H]2C[C@@H](Oc3ccccc3C#N)[C@H](O)[C@@H]2O)ncn1`: the IC50 is above 200000 nM.

`CO[C@H]1C[C@H](n2ccc3c(C)ncnc32)[C@H](O)[C@@H]1O`: the IC50 stood at 5740 nM.

In the case of `Cc1ncnc2c1ccn2[C@@H]1C[C@H](Oc2ccc(F)c3c2CNC[C@@H]3C)[C@@H](O)[C@H]1O`, the IC50 was 2 nM.

Turning to `Cc1ncnc2c1ccn2[C@@H]1C[C@H]([C@](F)(CN)c2ccc(F)cc2)[C@@H](O)[C@H]1O`, the IC50 was 18900 nM.

On to `CN(c1cc(N)ncn1)[C@@H]1C[C@H]([C@@H](O)c2ccc(F)c(F)c2)[C@@H](O)[C@H]1O`, for which the IC50 came out at 879 nM.

Turning to `Cc1ncnc2c1ccn2[C@@H]1C[C@H]([C@@H](CN)c2ccc(F)cc2)[C@@H](O)[C@H]1O`, the IC50 worked out at 676 nM.

Take `Cc1cc(N[C@@H]2C[C@H](Oc3ccc(F)cc3C#N)[C@@H](O)[C@H]2O)ncn1`: the IC50 was above 200000 nM.

With `Cc1cc(N[C@@H]2C[C@H]([C@@H](O)c3ccc(F)c(F)c3)[C@@H](O)[C@H]2O)ncn1`, the IC50 was 59500 nM.

For `Cc1nc(N)nc2c1ccn2[C@@H]1C[C@@H]([C@H](O)c2ccc(F)c(F)c2)[C@@H](O)[C@H]1O`, the concentration for half-maximal inhibition (IC50) stood at 105 nM.

Regarding `Cc1ncnc(N(C)[C@@H]2C[C@@H]([C@H](O)c3ccc(F)c(F)c3)[C@@H](O)[C@H]2O)n1`, the IC50 was 29500 nM.

Turning to `Cc1nccc(N[C@@H]2C[C@H]([C@H](O)c3ccc(F)c(F)c3)[C@@H](O)[C@H]2O)n1`, the half-maximal inhibitory concentration (IC50) came to 150 nM.

As to `Cc1ncnc2c1ccn2C1C[C@H](Oc2cccc3c2CNCC3)[C@@H](O)[C@H]1O` (some centres not stated), the IC50 came to 1 nM.

`Cc1ncnc2c1ccn2[C@@H]1CC([C@@](C)(O)c2ccc(F)cc2)[C@@H](O)[C@H]1O` (some centres not stated): the IC50 is 64 nM.

With `COC(=O)c1cc(F)ccc1O[C@H]1C[C@@H](n2ccc3c(C)ncnc32)[C@H](O)[C@@H]1O`, the IC50 was 10200 nM.

As for `Cc1ncnc2c1ccn2[C@@H]1C[C@H]([C@@H](F)c2ccc(F)cc2)[C@@H](O)[C@H]1O`, the IC50 was determined as 3 nM.
